This note sets out measurements from US20240109891A1, “NOVEL SUBSTITUTED TRICYCLIC AZA-HETEROCYCLES AS SOS1 INHIBITORS” (Viva Star Biosciences (Suzhou) Co., Ltd., priority 2021, published 2024).

In experiment [1] the target is T1, KRAS-WT and SOS1 proteins (Homo sapiens, UniProt Q07889).
T1 construct: purchased Cisbio 63ADK000CB15PEG
T1 sequence (Q07889 1-1333): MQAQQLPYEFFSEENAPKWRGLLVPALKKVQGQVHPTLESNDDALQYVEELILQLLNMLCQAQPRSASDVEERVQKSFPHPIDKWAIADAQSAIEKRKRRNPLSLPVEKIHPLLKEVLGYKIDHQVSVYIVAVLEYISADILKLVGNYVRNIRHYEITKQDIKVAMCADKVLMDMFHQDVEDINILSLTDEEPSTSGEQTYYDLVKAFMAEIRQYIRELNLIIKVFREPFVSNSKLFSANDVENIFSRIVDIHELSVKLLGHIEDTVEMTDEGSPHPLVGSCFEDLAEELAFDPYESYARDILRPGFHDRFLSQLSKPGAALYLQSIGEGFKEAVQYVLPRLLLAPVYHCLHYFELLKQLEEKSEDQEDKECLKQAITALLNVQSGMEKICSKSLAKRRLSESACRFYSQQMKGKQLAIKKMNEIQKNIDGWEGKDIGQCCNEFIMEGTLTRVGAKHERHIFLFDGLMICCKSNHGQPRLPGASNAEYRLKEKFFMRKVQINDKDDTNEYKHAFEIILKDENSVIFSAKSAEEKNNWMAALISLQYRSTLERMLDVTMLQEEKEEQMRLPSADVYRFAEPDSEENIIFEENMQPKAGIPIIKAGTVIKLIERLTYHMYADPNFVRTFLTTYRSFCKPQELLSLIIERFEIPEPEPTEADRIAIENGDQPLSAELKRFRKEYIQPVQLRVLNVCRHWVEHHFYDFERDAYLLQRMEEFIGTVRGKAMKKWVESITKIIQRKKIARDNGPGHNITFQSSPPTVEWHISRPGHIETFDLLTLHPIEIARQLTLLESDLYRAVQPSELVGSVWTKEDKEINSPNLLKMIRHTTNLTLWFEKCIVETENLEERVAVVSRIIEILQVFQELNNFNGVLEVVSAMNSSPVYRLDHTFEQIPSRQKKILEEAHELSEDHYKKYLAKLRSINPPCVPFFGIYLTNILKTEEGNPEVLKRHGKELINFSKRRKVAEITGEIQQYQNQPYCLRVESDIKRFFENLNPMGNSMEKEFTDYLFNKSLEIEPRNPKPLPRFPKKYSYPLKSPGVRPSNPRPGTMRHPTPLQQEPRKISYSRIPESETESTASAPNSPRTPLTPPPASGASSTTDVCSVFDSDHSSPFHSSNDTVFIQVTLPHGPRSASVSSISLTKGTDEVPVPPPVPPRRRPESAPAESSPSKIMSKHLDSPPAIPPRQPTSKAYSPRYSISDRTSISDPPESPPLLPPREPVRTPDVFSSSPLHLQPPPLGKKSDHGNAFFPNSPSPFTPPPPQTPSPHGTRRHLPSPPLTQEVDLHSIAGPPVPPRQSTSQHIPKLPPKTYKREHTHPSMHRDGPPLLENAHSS
The experiment in a line: KRAS-WT/SOS1 binding assay (HTRF). Conditions: Tag1-SOS1 / Tag2-KRAS-WT, 10 μM GTP, read-out: Activity Data in Kras: SOS1 Assay, Wild Type. As to the method:
(§1) KRAS-WT (or G12C/G12D/G12V)/SOS1 Binding Assay
(§2) Low IC50 values are indicative of high potency of the SOS1 inhibitor compounds in this assay setting.
(§3) The KRAS-WT (or G12C/G12D/G12V)/SOS1 binding assay is performed using an assay kit (Cisbio, Cat #63ADK000CB15PEG or 63ADK000CB16PEG/63ADK000CB17PEG/63ADK000CB18PEG) according to the procedure recommended by the manufacturer. • 1) Thaw and prepare the working solution of Tag1-SOS1 protein and Tag2-KRAS-WT (or G12C/G12D/G12V) protein with final concentration of 10 μM GTP (Sigma, Cat #V900868). • 2) Thaw and prepare the working solution of anti-Tag1-Tb^3+ anti-Tag2-XL665. • 3) Dispense 2 μL of serially diluted compound, 4 μL of Tag1-SOS1 protein and 4 μL of Tag2-KRAS-WT (or G12C/G12D/G12V) protein with GTP into a ProxiPlate-384 Plus, white 384-shallow well microplate (PerkinElmer, Cat #6008280). • 4) Incubate the plate for 15 minutes at room temperature. • 5) Dispense 10 μL of pre-mixed anti-Tag1-Tb^3+ and anti-Tag2-XL665 into the plate. • 6) Seal the plate and incubate for 2 hours at room temperature. • 7) Remove the plate sealer and read on PHERAstar FS (BMG LABTECH, PHERAstar FS). • 8) Calculate the ratio of the acceptor and donor emission signals for each individual well using the following equation.
(§4) [formula] • 9) IC50 values are fitted and calculated by HTRF signal values and log of compound concentrations to nonlinear regression [Log (inhibitor) vs. Response−Variable Slope (four parameters)] using the GraphPad Prism 8.0.

For experiment [2], the target named is T2, KRAS G12D and SOS1 proteins (Homo sapiens, UniProt Q07889).
T2 construct: purchased Cisbio 63ADK000CB17PEG
T2 sequence (Q07889 1-1333): T1 sequence (Q07889 1-1333)
The experiment in a line: KRAS-G12D/SOS1 binding assay (HTRF). Conditions: Tag1-SOS1 / Tag2-KRAS G12D, 10 μM GTP. As to the method: as §1, §2, §3, §4

For the compound `COc1cc2c(cc1O[C@H]1CCOC1)c(N[C@H](C)c1cc(N)cc(C(F)(F)F)c1)nc1cncn12` [Example 57, N—((R)-1-(3-amino-5-(trifluoromethyl)phenyl)ethyl)-8-methoxy-7-(((S)-tetrahydrofuran-3-yl)oxy)imidazo[1,5-a]quinazolin-5-amine], the IC50 in experiment [1] and in experiment [2] was 0.1 to 0.5 µM in each case.

Take `CC(=O)N1CCC(Oc2cc3c(N[C@H](C)c4cccc5c4CCC5(F)F)nc(C)nc3c3cnn(C)c23)CC1` [Example 40, (R)-1-(4-((4-((1-(1,1-difluoro-2,3-dihydro-1H-inden-4-yl)ethyl)amino)-2,7-dimethyl-7H-pyrazolo[3,4-h]quinazolin-6-yl)oxy)piperidin-1-yl)ethan-1-one]: the IC50 in experiment [1] and in experiment [2] was less than 0.1 µM each time.

Take `Cc1nc(N[C@H](C)c2cccc(C(F)(F)F)c2)c2cc(O[C@H]3CCOC3)c3nncn3c2n1` [Example 17, 12-methyl-7-(oxolan-3-yloxy)-N-[(1R)-1-[3-(trifluoromethyl)phenyl]ethyl]-2,4,5,11,13-pentaazatricyclo[7.4.0.0^{2,6}]trideca-1(9),3,5,7,10,12-hexaen-10-amine]: the IC50 in experiment [1] and in experiment [2] was 0.1 to 0.5 µM throughout.

For the compound `Cc1nc(N[C@H](C)c2cc(C(C)(C)O)cc(C(F)(F)F)c2)c2cc(-c3ccc(=O)n(C)c3)c3c(cnn3C)c2n1` [Example 26, (R)-5-(4-((1-(3-(2-hydroxypropan-2-yl)-5-(trifluoromethyl)phenyl)ethyl)amino)-2,7-dimethyl-7H-pyrazolo[3,4-h]quinazolin-6-yl)-1-methylpyridin-2(1H)-one], the IC50 in experiment [1] and in experiment [2] was greater than 5 µM throughout.

Take `COc1cc2c(cc1C1CCN(C(C)=O)CC1)c(N[C@H](C)c1cccc3c1CCC3(F)F)nc1ccnn12` [Example 52, (R)-1-(4-(5-((1-(1,1-difluoro-2,3-dihydro-1H-inden-4-yl)ethyl)amino)-8-methoxypyrazolo[1,5-a]quinazolin-7-yl)piperidin-1-yl)ethanone]: the IC50 in experiment [1] and in experiment [2] was 0.1 to 0.5 µM throughout.

On to `C[C@@H](Nc1nc2ccnn2c2cc(=O)n(C3(C)CC3)cc12)c1cccc(C(F)(F)CO)c1` [Example 61, (R)-5-((1-(3-(1,1-difluoro-2-hydroxyethyl)phenyl)ethyl)amino)-7-(1-methylcyclopropyl)pyrazolo[1,5-a]pyrido[3,4-e]pyrimidin-8(7H)-one], for which the IC50 in experiment [1] and in experiment [2] was less than 0.1 µM throughout.

In the case of `CC(=O)N1CC[C@H](Oc2cc3c(N[C@H](C)c4cccc5c4CCC5(F)F)nc(C)nc3n3cnnc23)C1` [Example 21, 1-((S)-3-((4-(((R)-1-(1,1-difluoro-2,3-dihydro-1H-inden-4-yl)ethyl)amino)-2-methyl-[1,2,4]triazolo[4′,3′:1,6]pyrido[2,3-d]pyrimidin-6-yl)oxy)pyrrolidin-1-yl)ethan-1-one], the IC50 in experiment [1] and in experiment [2] was less than 0.1 µM each time.

Consider `CC(=O)N1CCC(c2cc3c(N[C@H](C)c4cccc(C(F)(F)F)c4)nc(C)nc3n3cnnc23)CC1` [Example 9, (R)-1-(4-(2-methyl-4-((1-(3-(trifluoromethyl)phenyl)ethyl)amino)-[1,2,4]triazolo[4′,3′:1,6]pyrido[2,3-d]pyrimidin-6-yl)piperidin-1-yl)ethan-1-one], for which the IC50 in experiment [1] and in experiment [2] was less than 0.1 µM in each case.

Consider `Cc1nc(N[C@H](C)c2cccc(C(F)(F)CO)c2)c2cc(-c3ccc(=O)n(C)c3)c3[nH]ncc3c2n1` [Example 27, (R)-5-(4-((1-(3-(1,1-difluoro-2-hydroxyethyl)phenyl)ethyl)amino)-2-methyl-7H-pyrazolo[3,4-h]quinazolin-6-yl)-1-methylpyridin-2(1H)-one], for which the IC50 in experiment [1] and in experiment [2] was less than 0.1 µM in each case.

As to `Cc1nc(N[C@H](C)c2cccc(C(F)(F)CO)c2)c2cc(O[C@H]3CCN(C)C3)c3nncn3c2n1` [Example 22, 2,2-difluoro-2-(3-((R)-1-((2-methyl-6-(((S)-1-methylpyrrolidin-3-yl)oxy)-[1,2,4]triazolo[4′,3′:1,6]pyrido[2,3-d]pyrimidin-4-yl)amino)ethyl)phenyl)ethan-1-ol], the IC50 in experiment [1] and in experiment [2] was less than 0.1 µM throughout.

In the case of `Cc1nc(N[C@H](C)c2cccc(C(F)(F)F)c2)c2cc(OC3CCOC3)c3c(cnn3C)c2n1` (stereo partly drawn) [Example 35, 2,7-dimethyl-6-(oxolan-3-yloxy)-N-[(1R)-1-[3-(trifluoromethyl)phenyl]ethyl]-7H-pyrazolo[3,4-h]quinazolin-4-amine], the IC50 in experiment [1] and in experiment [2] was 0.1 to 0.5 µM throughout.

For the compound `Cc1nc(N[C@H](C)c2cccc(C(F)(F)CO)c2)c2cc(O[C@H]3CCOC3)c3c(cnn3C)c2n1` [Example 38, 2-(3-((R)-1-((2,7-dimethyl-6-(((S)-tetrahydrofuran-3-yl)oxy)-7H-pyrazolo[3,4-h]quinazolin-4-yl)amino)ethyl)phenyl)-2,2-difluoroethan-1-ol], the IC50 in experiment [1] and in experiment [2] was less than 0.1 µM in each case.

Consider `C[C@@H](Nc1nc2ccnn2c2cc(=O)n(C3CC(F)(F)C3)cc12)c1cccc(C(F)(F)CO)c1` [Example 66, (R)-5-((1-(3-(1,1-difluoro-2-hydroxyethyl)phenyl)ethyl)amino)-7-(3,3-difluorocyclobutyl)pyrazolo[1,5-a]pyrido[3,4-e]pyrimidin-8(7H)-one], for which the IC50 in experiment [1] and in experiment [2] was less than 0.1 µM each time.

`Cc1nc(N[C@H](C)c2cc(N)cc(C(F)(F)F)c2)c2cc(O[C@H]3CCOC3)c3nncn3c2n1` [Example 18, N-[(1R)-1-[3-amino-5-(trifluoromethyl)phenyl]ethyl]-12-methyl-7-(oxolan-3-yloxy)-2,4,5,11,13-pentaazatricyclo[7.4.0.0^{2,6}]trideca-1(9),3,5,7,10,12-hexaen-10-amine]: the IC50 in experiment [1] and in experiment [2] was less than 0.1 µM each time.

As to `Cc1nc(N[C@H](C)c2cccc(C(F)(F)CO)c2)c2cc(O[C@H]3CCOC3)c3nncn3c2n1` [Example 20, 2,2-difluoro-2-(3-((R)-1-((2-methyl-6-(((S)-tetrahydrofuran-3-yl)oxy)-[1,2,4]triazolo[4′,3′:1,6]pyrido[2,3-d]pyrimidin-4-yl)amino)ethyl)phenyl)ethan-1-ol], the IC50 in experiment [1] was less than 0.1 µM; in experiment [2] it was 0.1 to 0.5 µM.

Regarding `COc1cc2c(cc1O[C@H]1CCOC1)c(N[C@H](C)c1cccc(C(F)(F)F)c1)nc1ccnn12` [Example 54, 8-methoxy-7-[(3 S)-oxolan-3-yloxy]-N-[(1R)-1-[3-(trifluoromethyl)phenyl]ethyl]pyrazolo[1,5-α]quinazolin-5-amine], the IC50 in experiment [1] and in experiment [2] was 0.5 to 5 µM in each case.
